In ChEMBL document CHEMBL5724914, “Linking interpersonal differences in gut microbiota composition and drug biotransformation activity” (2024):

Legend:
[1] = (§1) The drug is tested on Z-001 corresponding to mouse gut metagenome with ENA study accession number: PRJEB37062 and ENA sample accession number: ERS12561801 for biotransformation under anaerobic condition. The drug concentrations were measured over 9 timepoints collected between 0 and 24 hours of incubation by liquid-chromatography-coupled mass spectrometry (LC–MS); details: 2 µM
[2] = human gut metagenome, 24 h, 2 µM
[3] = human gut metagenome, 24 h, 2 µM; remark: listed apart in the source
[4] = as §1, with “Z-029” for “Z-001”, “rat” for “mouse”, “ERS12561828” for “ERS12561801”; details: 2 µM
[5] = as §1, with “WLS-052” for “Z-001”, “human” for “mouse”, “ERS12561747” for “ERS12561801”; details: 2 µM
[6] = as §1, with “Z-028” for “Z-001”, “ERS12561827” for “ERS12561801”; details: 2 µM
[7] = human gut metagenome, 24 h, 2 µM; remark: listed apart in the source
[8] = human gut metagenome, 24 h, 2 µM; remark: listed apart in the source
[9] = as §1, with “WLS-069” for “Z-001”, “human” for “mouse”, “ERS12561748” for “ERS12561801”; details: 2 µM
[10] = human gut metagenome, 24 h, 2 µM; remark: listed apart in the source
[11] = as §1, with “Z-027” for “Z-001”, “to” for “to mouse gut”, “ERS12561826” for “ERS12561801”; details: 2 µM
[12] = as §1, with “WLS-170” for “Z-001”, “human” for “mouse”, “ERS12561762” for “ERS12561801”; details: 2 µM
[13] = as §1, with “Z-010” for “Z-001”, “to” for “to mouse gut”, “ERS12561810” for “ERS12561801”; details: 2 µM
[14] = human gut metagenome, 24 h, 2 µM; remark: listed apart in the source
[15] = human gut metagenome, 24 h, 2 µM; remark: listed apart in the source
[16] = human gut metagenome, 24 h, 2 µM; remark: listed apart in the source
[17] = as §1, with “Z-022” for “Z-001”, “ERS12561821” for “ERS12561801”; details: 2 µM
[18] = human gut metagenome, 24 h, 2 µM; remark: listed apart in the source
[19] = as §1, with “Z-023” for “Z-001”, “to” for “to mouse gut”, “ERS12561822” for “ERS12561801”; details: 2 µM
[20] = as §1, with “WLS-038” for “Z-001”, “human” for “mouse”, “ERS12561745” for “ERS12561801”; details: 2 µM
Further: call rule not given here.

SMILES	Bacterial Biotransformation [1]	Bacterial Biotransformation [2]	Bacterial Biotransformation [3]	Bacterial Biotransformation [4]	Bacterial Biotransformation [5]	Bacterial Biotransformation [6]	Bacterial Biotransformation [7]	Bacterial Biotransformation [8]	Bacterial Biotransformation [9]	Bacterial Biotransformation [10]	Bacterial Biotransformation [11]	Bacterial Biotransformation [12]	Bacterial Biotransformation [13]	Bacterial Biotransformation [14]	Bacterial Biotransformation [15]	Bacterial Biotransformation [16]	Bacterial Biotransformation [17]	Bacterial Biotransformation [18]	Bacterial Biotransformation [19]	Bacterial Biotransformation [20]
C#C[C@]1(OC(C)=O)CC[C@H]2[C@@H]3CCC4=C/C(=N/O)CC[C@@H]4[C@H]3CC[C@@]21CC [NORGESTIMATE]	Compound NOT metabolized	Compound NOT metabolized	Compound metabolized	Compound metabolized	Compound metabolized	Compound NOT metabolized	Compound metabolized	Compound NOT metabolized	Compound metabolized	Compound metabolized	Compound NOT metabolized	Compound metabolized	Compound NOT metabolized	Compound metabolized	Compound metabolized	Compound metabolized	Compound NOT metabolized	Compound NOT metabolized	Compound NOT metabolized	Compound metabolized
COc1ccnc(C[S+]([O-])c2nc3ccc(OC(F)F)cc3[nH]2)c1OC (stereo not given) [PANTOPRAZOLE]	Compound NOT metabolized	Compound metabolized	Compound NOT metabolized	Compound metabolized	Compound metabolized	Compound metabolized	Compound metabolized	Compound metabolized	Compound metabolized	Compound metabolized	Compound metabolized	Compound metabolized	Compound metabolized	Compound metabolized	Compound metabolized	Compound metabolized	Compound metabolized	Compound metabolized	Compound metabolized	Compound metabolized
CN(CCOc1ccc(CC2SC(=O)NC2=O)cc1)c1ccccn1.O=C(O)/C=C\C(=O)O (stereo not given) [ROSIGLITAZONE MALEATE]	Compound NOT metabolized	Compound NOT metabolized	Compound NOT metabolized	Compound NOT metabolized	Compound NOT metabolized	Compound NOT metabolized	Compound metabolized	Compound NOT metabolized	Compound metabolized	Compound NOT metabolized	Compound NOT metabolized	Compound metabolized	Compound NOT metabolized	Compound metabolized	Compound metabolized	Compound metabolized	Compound NOT metabolized	Compound NOT metabolized	Compound NOT metabolized	Compound NOT metabolized
CC(C)c1nc(N(C)S(C)(=O)=O)nc(-c2ccc(F)cc2)c1/C=C/[C@@H](O)C[C@@H](O)CC(=O)[O-].CC(C)c1nc(N(C)S(C)(=O)=O)nc(-c2ccc(F)cc2)c1/C=C/[C@@H](O)C[C@@H](O)CC(=O)[O-].[Ca+2] [ROSUVASTATIN CALCIUM]	Compound NOT metabolized	Compound NOT metabolized	Compound metabolized	Compound NOT metabolized	Compound metabolized	Compound NOT metabolized	Compound metabolized	Compound NOT metabolized	Compound metabolized	Compound metabolized	Compound NOT metabolized	Compound metabolized	Compound NOT metabolized	Compound NOT metabolized	Compound NOT metabolized	Compound metabolized	Compound NOT metabolized	Compound metabolized	Compound NOT metabolized	Compound NOT metabolized
O=C(O)c1cc(/N=N/c2ccc(S(=O)(=O)Nc3ccccn3)cc2)ccc1O [SULFASALAZINE]	Compound metabolized	Compound metabolized	Compound metabolized	Compound metabolized	Compound NOT metabolized	Compound metabolized	Compound metabolized	Compound metabolized	Compound metabolized	Compound metabolized	Compound NOT metabolized	Compound metabolized	Compound metabolized	Compound metabolized	Compound metabolized	Compound metabolized	Compound metabolized	Compound metabolized	Compound metabolized	Compound metabolized
C=CC[C@@H]1/C=C(\C)C[C@H](C)C[C@H](OC)[C@H]2O[C@@](O)(C(=O)C(=O)N3CCCC[C@H]3C(=O)O[C@H](/C(C)=C/[C@@H]3CC[C@@H](O)[C@H](OC)C3)[C@H](C)[C@@H](O)CC1=O)[C@H](C)C[C@@H]2OC.O [TACROLIMUS]	Compound NOT metabolized	Compound metabolized	Compound metabolized	Compound NOT metabolized	Compound metabolized	Compound NOT metabolized	Compound NOT metabolized	Compound metabolized	Compound metabolized	Compound metabolized	Compound NOT metabolized	Compound metabolized	Compound NOT metabolized	Compound metabolized	Compound metabolized	Compound metabolized	Compound NOT metabolized	Compound NOT metabolized	Compound NOT metabolized	Compound metabolized
CCS(=O)(=O)CCn1c([N+](=O)[O-])cnc1C [TINIDAZOLE]	Compound metabolized	Compound metabolized	Compound metabolized	Compound metabolized	Compound metabolized	Compound metabolized	Compound metabolized	Compound metabolized	Compound metabolized	Compound metabolized	Compound metabolized	Compound metabolized	Compound metabolized	Compound metabolized	Compound metabolized	Compound metabolized	Compound metabolized	Compound metabolized	Compound metabolized	Compound metabolized
COc1ccc(CN2CCNCC2)c(OC)c1OC.Cl.Cl [TRIMETAZIDINE DIHYDROCHLORIDE]	Compound NOT metabolized	Compound NOT metabolized	Compound NOT metabolized	Compound NOT metabolized	Compound NOT metabolized	Compound NOT metabolized	Compound NOT metabolized	Compound NOT metabolized	Compound NOT metabolized	Compound NOT metabolized	Compound NOT metabolized	Compound NOT metabolized	Compound NOT metabolized	Compound NOT metabolized	Compound NOT metabolized	Compound NOT metabolized	Compound NOT metabolized	Compound NOT metabolized	Compound NOT metabolized	Compound NOT metabolized
